Data on one compound can be found in publication PMC6086659 (eLife, 2018).

Usually Kd stands for the constant that tells how readily two partners part at equilibrium.

In this assay the target is T1, GABAA receptor β1 subunit (α1β1γ2SEM tri-heteromer) (Rattus norvegicus, UniProt P15431+P62813, P15431:DEL334-439/P15431:INS334GT/P62813:DEL340-408).
T1 construct: gene Gabrb1; purified α1β1γ2SEM receptor-Fab complex (M3/M4 loop deletions in α1 and β1; full-length γ2S); with GABAA receptor α1 subunit (Gabra1, P62813) and γ2S subunit (Gabrg2, P18508); 8E3 Fab
Briefly: radioligand saturation binding (scintillation proximity assay). In general terms: In a scintillation proximity assay essentially only radioactivity close to the scintillant gives light.

T1 sequence (P15431 with tags, fused parts or gaps DEL334-439/INS334GT): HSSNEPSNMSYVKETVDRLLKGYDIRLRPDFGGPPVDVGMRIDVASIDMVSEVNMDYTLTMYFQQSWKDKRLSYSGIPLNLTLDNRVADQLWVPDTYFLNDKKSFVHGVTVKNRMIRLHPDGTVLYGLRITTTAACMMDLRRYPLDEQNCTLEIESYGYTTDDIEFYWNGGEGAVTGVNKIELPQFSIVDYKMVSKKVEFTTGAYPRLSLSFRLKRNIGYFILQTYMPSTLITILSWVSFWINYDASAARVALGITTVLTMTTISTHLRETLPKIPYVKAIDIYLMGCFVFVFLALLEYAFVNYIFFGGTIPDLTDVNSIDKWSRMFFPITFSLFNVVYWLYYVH
T1 sequence (P62813 with tags, fused parts or gaps DEL340-408): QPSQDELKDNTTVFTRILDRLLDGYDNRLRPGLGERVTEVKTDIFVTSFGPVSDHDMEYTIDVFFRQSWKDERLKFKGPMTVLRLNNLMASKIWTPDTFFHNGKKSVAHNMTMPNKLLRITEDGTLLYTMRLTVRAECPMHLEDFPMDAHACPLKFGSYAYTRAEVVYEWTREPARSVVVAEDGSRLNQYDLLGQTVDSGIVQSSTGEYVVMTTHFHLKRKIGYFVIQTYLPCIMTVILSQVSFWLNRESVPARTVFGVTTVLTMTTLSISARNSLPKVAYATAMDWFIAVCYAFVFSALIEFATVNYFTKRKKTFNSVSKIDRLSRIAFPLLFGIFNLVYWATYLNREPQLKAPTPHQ
T1 sequence (P18508 39-466 partner): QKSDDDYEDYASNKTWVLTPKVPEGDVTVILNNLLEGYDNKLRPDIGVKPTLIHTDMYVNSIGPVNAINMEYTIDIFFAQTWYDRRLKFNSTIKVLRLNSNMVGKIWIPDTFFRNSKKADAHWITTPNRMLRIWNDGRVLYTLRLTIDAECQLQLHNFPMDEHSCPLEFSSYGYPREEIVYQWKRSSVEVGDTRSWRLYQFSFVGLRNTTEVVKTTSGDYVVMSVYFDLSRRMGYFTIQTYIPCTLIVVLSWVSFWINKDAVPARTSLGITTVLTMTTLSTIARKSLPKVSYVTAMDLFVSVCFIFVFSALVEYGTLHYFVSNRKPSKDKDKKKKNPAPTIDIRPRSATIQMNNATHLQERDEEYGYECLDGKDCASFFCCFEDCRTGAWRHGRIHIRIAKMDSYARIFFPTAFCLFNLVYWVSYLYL

`NCc1cc(=O)[nH]o1` [muscimol] registered a dissociation constant (Kd) of 109 nM. This lies in the sub-micromolar range.
